Assay results taken from PMC11294338 (Nature Communications, 2024).

Columns and labels:
[1] = test system: SARS-CoV-2 (USA-WA1/2020) replicon in HuH-7 cells; format: cell-based
SARS-CoV-2 [2] = details: in vivo; cited from earlier work
SARS-CoV-2 [3] = details: human, in vivo; cited from earlier work

Row | Compound | EC50 [1] | transmission to untreated contact animals (SARS-CoV-2 [2]) | post-exposure prophylactic prevention of transmission versus placebo (SARS-CoV-2 [3])
1 | CC(C)(C)[C@H](NC(=O)C(F)(F)F)C(=O)N1C[C@H]2[C@@H]([C@H]1C(=O)N[C@H](C#N)C[C@@H]1CCNC1=O)C2(C)C [Nirmatrelvir] | 15 nM | – | –
2 | CC(C)C(=O)OC[C@H]1O[C@@H](n2ccc(NO)nc2=O)[C@H](O)[C@@H]1O [molnupiravir] | – | prevented such transmission | neither was able to reach statistical significance over placebo
